Data reported in publication PMC6100415, “Hepatic Metabolism of Sakuranetin and Its Modulating Effects on Cytochrome P450s and UDP-Glucuronosyltransferases” (Molecules : A Journal of Synthetic Chemistry and Natural …, 2018).

Test system: hCAR-mediated CYP2B6 promoter
Assay: CAR-mediated CYP2B6 promoter luciferase assay in HepG2 cells
Type: cell-based, human
Settings: pcDNA3-CAR-transfected HepG2 cells, 24 h; CITCO 500 nM
Protocol: HepG2 cells (American Tissue Culture Collection, Manassas, VA, USA) were maintained in Dulbecco’s modified Eagle’s essential medium (DMEM), containing 10% fetal bovine serum, 1% nonessential amino acids, 1% GlutaMAX®, and 1% antibiotics/antimycotics at 37 °C in a 5% CO2 atmosphere. The expression plasmid encoding the human constitutive androstane receptor (hCAR; pcDNA3-CAR) and the pGL3-CYP2B6 luciferase construct were kindly provided by Dr. Hongbing Wang (University of Maryland, College Park, MD, USA). The plasmid encoding the human pregnane X receptor (hPXR; pcDNA3-PXR) and the pGL3-CYP3A4 luciferase construct were obtained from Dr. Masahiko Negishi at the National Institutes of Health (Bethesda, MD, USA). Cells were seeded at a density of 1.5 × 10^5 cells/well into a 24-well plate. The next day, the cells were transfected with 0.25 μg of either pcDNA3-CAR or pcDNA3-PXR and 0.25 μg of a promoter luciferase plasmid (either pGL3-CYP2B6 or pGL3-CYP3A4) using Lipofectamine 2000 (Invitrogen, Carlsbad, CA, USA) according to the manufacturer’s instructions. […] The cells were harvested and luciferase activity was measured as described previously.

Clc1ccc(-c2nc3sccn3c2C=NOCc2ccc(Cl)c(Cl)c2)cc1 [CITCO, reference compound]
CYP2B6 luciferase activity increase: 1.5 fold
